This note sets out measurements from patent US20180201592A1, “2-AMINO-1,3,4-THIADIAZINE AND 2-AMINO-1,3,4-OXADIAZINE BASED ANTIFUNGAL AGENTS” (F2G Limited, priority 2015, published 2018).

Conditions in all cases: banded MIC grade
The test system of assay [1] is Aspergillus fumigatus. The assay is described as follows: Minimum inhibitory concentration, YAG medium. It counts as cell-based. A digest of the protocol:
(§1)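 MIC, in mg/L, defined as the lowest drug level inhibiting growth by >70% relative to drug-free wells, judged by OD 485 nm after 24 hrs at 35° C. Spores (1-2×10^4 cfu/mL) were grown in YAG medium against doubling dilutions, usually 50-0.05 mg/L, repeated at 0.5-0.0005 mg/L where needed.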

For assay [2], the system named is A. fumigatus 210. The assay is described as follows: Minimum inhibitory concentration, YAG medium. It counts as cell-based, Aspergillus fumigatus. A digest of the protocol:
as §1

Assay [3] deals with A. terreus 49. The assay is described as follows: Minimum inhibitory concentration, YAG medium. It counts as cell-based, Aspergillus terreus. The procedure, abridged: (§2)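 MIC values (mg/L) were derived from well optical density at 485 nm. Plates with Aspergillus spores and doubling aqueous dilutions of compound (5 mg/mL DMSO stock) had been incubated at 35° C for 24 hrs.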
The subject of assay [4] is Aspergillus flavus. The assay is described as follows: Minimum inhibitory concentration, YAG medium. It counts as cell-based. A digest of the protocol:
as §2

Assay [5] relates to Aspergillus niger. The assay is described as follows: Minimum inhibitory concentration, YAG medium. It counts as cell-based. The procedure, abridged:
as §2

The test system of assay [6] is Aspergillus terreus. The assay is described as follows: Minimum inhibitory concentration, YAG medium. It counts as cell-based. A digest of the protocol: as §2
Assay [7] deals with A. flavus. The assay is described as follows: Minimum inhibitory concentration, RPMI medium. It counts as cell-based. A digest of the protocol:
(§3)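 Thawed 5 mg/mL DMSO stocks are vortexed, diluted into sterile water and serially halved in water. The MIC test is then run in RPMI 1640 at 35° C for 24-48 hrs. Wells are read at OD 485 nm.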

Assay [8] has as its system A. niger. The assay is described as follows: Minimum inhibitory concentration, RPMI medium. It counts as cell-based. A digest of the protocol: as §3
For assay [9], the system named is A. terreus 49. The assay is described as follows: Minimum inhibitory concentration, RPMI medium. It counts as cell-based. The procedure, abridged:
as §3

Assay [10] concerns A. terreus. The assay is described as follows: Minimum inhibitory concentration, RPMI medium. It counts as cell-based. The procedure, abridged: as §3
Assay [11] relates to C. albicans. The assay is described as follows: Minimum inhibitory concentration, RPMI medium. It counts as cell-based. The procedure, abridged: as §3
The subject of assay [12] is C. glabrata. The assay is described as follows: Minimum inhibitory concentration, RPMI medium. It counts as cell-based. The procedure, abridged: as §3
Assay [13] deals with C. krusei. The assay is described as follows: Minimum inhibitory concentration, RPMI medium. It counts as cell-based. A digest of the protocol: as §3
For assay [14], the system named is C. parapsilosis. The assay is described as follows: Minimum inhibitory concentration, RPMI medium. It counts as cell-based. The procedure, abridged: as §3
The test system of assay [15] is C. tropicalis. The assay is described as follows: Minimum inhibitory concentration, RPMI medium. It counts as cell-based. The procedure, abridged: as §3
Assay [16] concerns A. fumigatus 210. The assay is described as follows: Minimum inhibitory concentration, RPMI medium. It counts as cell-based. A digest of the protocol:
(§4)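 Compound doubling dilutions were prepared from 5 mg/mL DMSO stock; fungus was diluted in RPMI 1640 with 2% glucose and 0.135 M MOPS (pH 7.0), giving inocula of 1-2×10^4 cfu/mL and drug range 50-0.05 mg/L. Plates ran 24-48 hrs at 35° C; MIC is the lowest concentration giving >80% growth inhibition by OD485 versus drug-free control.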

Assay [17] deals with A. fumigatus. The assay is described as follows: Minimum inhibitory concentration, RPMI medium. It counts as cell-based. A digest of the protocol: as §4

As to `Cc1cc(COCCCCC2=NN=C(N)SC2)ccc1F`, the “MIC grade, A. FUMIGATUS, YAG media” value in assay [1] was 4 (4: <0.2 mg/L). Moreover, in assay [2], the “MIC grade, A. FUMIGATUS 210, YAG media” value is given as 4 (4: <0.2 mg/L). For the same compound, the “MIC grade, A. TERREUS 49, YAG media” value in assay [3] is listed as 4 (4: <0.2 mg/L). Also, the “MIC grade, A. FLAVUS, YAG media” value in assay [4] is reported as 4 (4: <0.2 mg/L). In addition, the “MIC grade, A. NIGER, YAG media” value in assay [5] is recorded as 4 (4: <0.2 mg/L). Besides, the “MIC grade, A. TERREUS, YAG media” value in [6] was 4 (4: <0.2 mg/L). Besides, in [7], the “MIC grade, A. FLAVUS, RPMI media” value is 4 (4: <1 mg/L). For the same compound, in assay [8], the “MIC grade, A. NIGER, RPMI media” value is 3 (3: 1-5 mg/L). The “MIC grade, A. TERREUS 49, RPMI media” value in assay [9] is 3 (3: 1-5 mg/L). The “MIC grade, A. TERREUS, RPMI media” value in assay [10] is listed as 3 (3: 1-5 mg/L). For the same compound, the “MIC grade, C. ALBICANS, RPMI media” value in assay [11] is listed as 4 (4: <1 mg/L). Also, in assay [12], the “MIC grade, C. GLABRATA, RPMI media” value was 3 (3: 1-5 mg/L). Besides, in assay [13], the “MIC grade, C. KRUSEI, RPMI media” value is on record as 4 (4: <1 mg/L). Also, the “MIC grade, C. PARAPSILOSIS, RPMI media” value in assay [14] is listed as 4 (4: <1 mg/L). For the same compound, the “MIC grade, C. TROPICALIS, RPMI media” value in [15] is recorded as 4 (4: <1 mg/L). Further, the “MIC grade, A. FUMIGATUS 210, RPMI media” value in assay [16] is 2 (2: 5-20 mg/L). The “MIC grade, A. FUMIGATUS, RPMI media” value in assay [17] is recorded as 4 (4: <1 mg/L).

Consider `NC1=NN=C(CCCCOCc2ccc(F)cc2)CS1`, for which the “MIC grade, A. FUMIGATUS, YAG media” value in [1] was 2 (2: 1-5 mg/L). The “MIC grade, A. FUMIGATUS 210, YAG media” value in assay [2] is on record as 2 (2: 1-5 mg/L). Further, the “MIC grade, A. TERREUS 49, YAG media” value in assay [3] is listed as 2 (2: 1-5 mg/L). In addition, the “MIC grade, A. FLAVUS, YAG media” value in assay [4] is 2 (2: 1-5 mg/L). For the same compound, the “MIC grade, A. NIGER, YAG media” value in assay [5] is listed as 2 (2: 1-5 mg/L). Also, the “MIC grade, A. TERREUS, YAG media” value in [6] is 2 (2: 1-5 mg/L). Moreover, in [7], the “MIC grade, A. FLAVUS, RPMI media” value was 1 (1: ≥20 mg/L). Moreover, in assay [8], the “MIC grade, A. NIGER, RPMI media” value was 1 (1: ≥20 mg/L). Besides, the “MIC grade, A. TERREUS 49, RPMI media” value in assay [9] is recorded as 1 (1: ≥20 mg/L). The “MIC grade, A. TERREUS, RPMI media” value in assay [10] is listed as 1 (1: ≥20 mg/L). Further, in assay [11], the “MIC grade, C. ALBICANS, RPMI media” value is recorded as 2 (2: 5-20 mg/L). For the same compound, in [12], the “MIC grade, C. GLABRATA, RPMI media” value is 2 (2: 5-20 mg/L). Moreover, the “MIC grade, C. KRUSEI, RPMI media” value in assay [13] is listed as 2 (2: 5-20 mg/L). Also, the “MIC grade, C. PARAPSILOSIS, RPMI media” value in assay [14] was 2 (2: 5-20 mg/L). Moreover, in assay [15], the “MIC grade, C. TROPICALIS, RPMI media” value is recorded as 2 (2: 5-20 mg/L). Further, in assay [16], the “MIC grade, A. FUMIGATUS 210, RPMI media” value is given as 1 (1: ≥20 mg/L). Further, the “MIC grade, A. FUMIGATUS, RPMI media” value in assay [17] is given as 1 (1: ≥20 mg/L).

On to `COc1ccc(COCCCCC2=NN=C(N)SC2)cc1`, for which, in assay [1], the “MIC grade, A. FUMIGATUS, YAG media” value is given as 2 (2: 1-5 mg/L). Moreover, the “MIC grade, A. FUMIGATUS 210, YAG media” value in assay [2] is 2 (2: 1-5 mg/L). Besides, the “MIC grade, A. TERREUS 49, YAG media” value in assay [3] is 2 (2: 1-5 mg/L). Also, the “MIC grade, A. FLAVUS, YAG media” value in [4] was 2 (2: 1-5 mg/L). For the same compound, the “MIC grade, A. NIGER, YAG media” value in assay [5] is listed as 2 (2: 1-5 mg/L). Further, the “MIC grade, A. TERREUS, YAG media” value in [6] is 2 (2: 1-5 mg/L). Moreover, the “MIC grade, A. FLAVUS, RPMI media” value in assay [7] is given as 1 (1: ≥20 mg/L). The “MIC grade, A. NIGER, RPMI media” value in [8] was 1 (1: ≥20 mg/L). For the same compound, the “MIC grade, A. TERREUS 49, RPMI media” value in assay [9] is recorded as 1 (1: ≥20 mg/L). For the same compound, the “MIC grade, A. TERREUS, RPMI media” value in assay [10] is given as 1 (1: ≥20 mg/L). Further, in assay [11], the “MIC grade, C. ALBICANS, RPMI media” value was 2 (2: 5-20 mg/L). The “MIC grade, C. GLABRATA, RPMI media” value in [12] is listed as 2 (2: 5-20 mg/L). Also, in assay [13], the “MIC grade, C. KRUSEI, RPMI media” value is given as 2 (2: 5-20 mg/L). The “MIC grade, C. PARAPSILOSIS, RPMI media” value in [14] was 2 (2: 5-20 mg/L). For the same compound, the “MIC grade, C. TROPICALIS, RPMI media” value in assay [15] was 2 (2: 5-20 mg/L). Further, the “MIC grade, A. FUMIGATUS 210, RPMI media” value in assay [16] was 1 (1: ≥20 mg/L). The “MIC grade, A. FUMIGATUS, RPMI media” value in assay [17] is on record as 1 (1: ≥20 mg/L).

Take `Cc1cccc(COCCCCC2=NN=C(N)SC2)c1`: the “MIC grade, A. FUMIGATUS, YAG media” value in assay [1] is given as 3 (3: 0.2-1 mg/L). In addition, the “MIC grade, A. FUMIGATUS 210, YAG media” value in [2] is listed as 3 (3: 0.2-1 mg/L). In addition, the “MIC grade, A. TERREUS 49, YAG media” value in [3] is reported as 3 (3: 0.2-1 mg/L). The “MIC grade, A. FLAVUS, YAG media” value in assay [4] is recorded as 3 (3: 0.2-1 mg/L). The “MIC grade, A. NIGER, YAG media” value in assay [5] is recorded as 3 (3: 0.2-1 mg/L). Moreover, the “MIC grade, A. TERREUS, YAG media” value in [6] was 3 (3: 0.2-1 mg/L). For the same compound, in assay [7], the “MIC grade, A. FLAVUS, RPMI media” value was 3 (3: 1-5 mg/L). The “MIC grade, A. NIGER, RPMI media” value in assay [8] is on record as 2 (2: 5-20 mg/L). Further, the “MIC grade, A. TERREUS 49, RPMI media” value in [9] is 2 (2: 5-20 mg/L). In addition, the “MIC grade, A. TERREUS, RPMI media” value in assay [10] is listed as 2 (2: 5-20 mg/L). For the same compound, the “MIC grade, C. ALBICANS, RPMI media” value in assay [11] is recorded as 3 (3: 1-5 mg/L). For the same compound, the “MIC grade, C. GLABRATA, RPMI media” value in assay [12] was 2 (2: 5-20 mg/L). Moreover, the “MIC grade, C. KRUSEI, RPMI media” value in [13] was 3 (3: 1-5 mg/L). The “MIC grade, C. PARAPSILOSIS, RPMI media” value in assay [14] was 3 (3: 1-5 mg/L). Moreover, the “MIC grade, C. TROPICALIS, RPMI media” value in [15] is recorded as 3 (3: 1-5 mg/L). Besides, in assay [16], the “MIC grade, A. FUMIGATUS 210, RPMI media” value is reported as 2 (2: 5-20 mg/L). Further, the “MIC grade, A. FUMIGATUS, RPMI media” value in assay [17] is recorded as 3 (3: 1-5 mg/L).
